Measurements from patent publication US9884818B2, “Sulphamoylpyrrolamide derivatives and the use thereof as medicaments for the treatment of hepatitis B” (Janssen Sciences Ireland UC, priority 2013, dated 2018).

Experiments:
HBV [1] = assay: Anti-HBV activity, HepG2.2.15 stable transfected cell line, HBV DNA from secreted virions by realtime PCR; format: cell-based; conditions: Hepatitis B virus, HepG2.2.15, 144 h, HepG2.2.15 cells, 6 days of treatment, HBV DNA from secreted virions; read-out: HepG2 2.15 EC50
[2] = Cytotoxicity in HepG2 cells, Resazurin viability assay; conditions: human, HepG2 cells, HepG2 4 days CC50 (μM), incubated for 4 days, Resazurin assay
HBV [3] = assay: Anti-HBV activity, HepG2.117 inducibly HBV producing cell line (Tet-off), intracellular HBV DNA by realtime PCR; format: cell-based; conditions: Hepatitis B virus, HepG2.117, 72 h, HepG2.117 cells, 3 days of treatment, intracellular HBV DNA; read-out: HepG2 117 EC50

SMILES	EC50 (HBV [1]) [nM]	CC50 at 4 days [2] [µM]	EC50 (HBV [3]) [nM]
Cc1c(S(=O)(=O)N[C@H](C)C(F)(F)F)cc(C(=O)Nc2cc(F)c(F)c(Cl)c2)n1C [Compound 137, N-(3-Chloro-4,5-difluorophenyl)-1,5-dimethyl-4-{[(1R)-2,2,2-trifluoro-1-methylethyl]sulfamoyl}-1H-pyrrole-2-carboxamide]	30	16.5	40
C[C@H](NS(=O)(=O)c1cc(C(=O)Nc2cccc(C#N)c2)n(C)c1)C(F)(F)F [Compound 197, N-(3-Cyanophenyl)-1-methyl-4-{[(1S)-2,2,2-trifluoro-1-methylethyl]-sulfamoyl}-1H-pyrrole-2-carboxamide]	120	> 25	90
Cc1cc(NC(=O)c2c(C)c(S(=O)(=O)NC3(C)COC3)cn2C)ccc1F [Compound 90, N-(4-Fluoro-3-methylphenyl)-1,3-dimethyl-4-[(3-methyloxetan-3-yl)sulfamoyl]-1H-pyrrole-2-carboxamide]	50	> 25	30
Cn1cc(S(=O)(=O)NC(C)(C)C)cc1C(=O)Nc1cccc(C#N)c1 [Compound 191, 4-(tert-Butylsulfamoyl)-N-(3-cyanophenyl)-1-methyl-1H-pyrrole-2-carboxamide]	180	> 25	160
Cn1cc(S(=O)(=O)NC2(C)COC2)c(F)c1C(=O)Nc1ccc(F)c(Cl)c1F [Compound 215, N-(3-Chloro-2,4-difluorophenyl)-3-fluoro-1-methyl-4-[(3-methyloxetan-3-yl)sulfamoyl]-1H-pyrrole-2-carboxamide]	20	> 25	10
CC(C)n1cc(S(=O)(=O)N[C@H](C)C(F)(F)F)c(Cl)c1C(=O)Nc1ccc(F)c(C#N)c1 [Compound 291, 3-chloro-N-(3-cyano-4-fluoro-phenyl)-1-isopropyl-4-[[(1R)-2,2,2-trifluoro-1-methyl-ethyl]sulfamoyl]pyrrole-2-carboxamide]	420	> 25	390
Cc1c(S(=O)(=O)N[C@@H](C)C(F)(F)F)cn(C)c1C(=O)Nc1ccc(F)c(F)c1 [Compound 146, N-(3,4-Difluorophenyl)-1,3-dimethyl-4-{[(1S)-2,2,2-trifluoro-1-methylethyl]sulfamoyl}-1H-pyrrole-2-carboxamide]	70	> 25	40
Cc1cc(NC(=O)c2cc(S(=O)(=O)NC3(C)CCOC3)cn2C)ccc1F (stereo not drawn) [Compound 11, N-(4-fluoro-3-methyl-phenyl)-1-methyl-4-[(3-methyltetrahydrofuran-3-yl)sulfamoyl]pyrrole-2-carboxamide]	30	> 25	20
Cn1cc(S(=O)(=O)NC2(C)COC2)c(F)c1C(=O)Nc1ccc(F)c(C(F)F)c1 [Compound 107, N-[3-(Difluoromethyl)-4-fluorophenyl]-3-fluoro-1-methyl-4-[(3-methyloxetan-3-yl)sulfamoyl]-1H-pyrrole-2-carboxamide]	10	> 25	10
C[C@@H](NS(=O)(=O)c1cn(C)c(C(=O)Nc2ccc(F)c(F)c2)c1Cl)C(F)(F)F [Compound 217, 3-Chloro-N-(3,4-difluorophenyl)-1-methyl-4-{[(1R)-2,2,2-trifluoro-1-methylethyl]sulfamoyl}-1H-pyrrole-2-carboxamide]	5	> 25	5
C[C@H](NS(=O)(=O)c1cc(C(=O)Nc2ccc(F)c(C#N)c2F)n(C)c1)C(F)(F)F [Compound 196, N-(3-Cyano-2,4-difluorophenyl)-1-methyl-4-{[(1S)-2,2,2-trifluoro-1-methylethyl]sulfamoyl}-1H-pyrrole-2-carboxamide]	100	> 25	80
Cn1cc(S(=O)(=O)NCC(F)(F)F)cc1C(=O)Nc1ccc(F)c(C#N)c1 [Compound 134, N-(3-Cyano-4-fluorophenyl)-1-methyl-4-[(2,2,2-trifluoroethyl)sulfamoyl]-1H-pyrrole-2-carboxamide]	180	> 25	130
Cc1c(F)ccc(NC(=O)c2cc(S(=O)(=O)NC3(C)COC3)cn2C)c1F [Compound 85, N-(2,4-Difluoro-3-methylphenyl)-1-methyl-4-[(3-methyloxetan-3-yl)sulfamoyl]-1H-pyrrole-2-carboxamide]	30	> 25	50
Cn1cc(S(=O)(=O)NC(C)(C)CF)cc1C(=O)Nc1cc(F)c(F)c(Cl)c1 [Compound 207, N-(3-chloro-4,5-difluoro-phenyl)-4-[(2-fluoro-1,1-dimethyl-ethyl)sulfamoyl]-1-methyl-pyrrole-2-carboxamide]	50	> 25	140
Cn1cc(S(=O)(=O)NC(C)(C)C)c(F)c1C(=O)Nc1ccc(F)c(F)c1 [Compound 211, 4-(tert-Butylsulfamoyl)-N-(3,4-difluorophenyl)-3-fluoro-1-methyl-1H-pyrrole-2-carboxamide]	40	> 25	40
CC[C@@H](C)NS(=O)(=O)c1cn(C)c(C(=O)Nc2ccc(F)c(C#N)c2)c1F [Compound 186, N-(3-Cyano-4-fluorophenyl)-3-fluoro-1-methyl-4-{[(1R)-1-methyl-propyl]sulfamoyl}-1H-pyrrole-2-carboxamide]	8	> 25	5
Cn1cc(S(=O)(=O)NC2(C)COC2)cc1C(=O)Nc1cc(Cl)c(F)c(Cl)c1 [Compound 75, N-(3,5-Dichloro-4-fluorophenyl)-1-methyl-4-[(3-methyloxetan-3-yl)sulfamoyl]-1H-pyrrole-2-carboxamide]	180	> 25	180
[2H]c1cc(F)c(C)c([2H])c1NC(=O)c1cc(S(=O)(=O)NC(C)(C)C)cn1C [Compound 67, 4-(tert-butylsulfamoyl)-N-(2,6-dideuterio-4-fluoro-3-methyl-phenyl)-1-methyl-pyrrole-2-carboxamide]	20	> 25	30
Cc1cc(NC(=O)c2cc(S(=O)(=O)NC3(C)COC3)cn2C)cc(F)c1F [Compound 35, N-(3,4-difluoro-5-methyl-phenyl)-1-methyl-4-[(3-methyloxetan-3-yl)-sulfamoyl]pyrrole-2-carboxamide]	30	> 25	20
CC(C)NS(=O)(=O)c1cn(C)c(C(=O)Nc2ccc(F)c(Cl)c2)c1F [Compound 235, N-(3-Chloro-4-fluorophenyl)-3-fluoro-1-methyl-4-[(1-methylethyl)sulfamoyl]-1H-pyrrole-2-carboxamide]	10	> 25	10
Cc1c(S(=O)(=O)N[C@@H](C)C(F)(F)F)cn(C)c1C(=O)Nc1ccc(F)c(Cl)c1 [Compound 147, N-(3-Chloro-4-fluorophenyl)-1,3-dimethyl-4-{[(1S)-2,2,2-trifluoro-1-methylethyl]sulfamoyl}-1H-pyrrole-2-carboxamide]	80	> 25	40
Cn1cc(S(=O)(=O)NC2(C)CC(F)(F)C2)c(F)c1C(=O)Nc1ccc(F)c(C#N)c1 [Compound 187, N-(3-Cyano-4-fluorophenyl)-4-[(3,3-difluoro-1-methylcyclobutyl)sulfamoyl]-3-fluoro-1-methyl-1H-pyrrole-2-carboxamide]	8	> 25	6
Cc1c(S(=O)(=O)N[C@H](C)C(F)(F)F)cn(C)c1C(=O)Nc1cc(F)c(F)c(Cl)c1 [Compound 202, N-(3-Chloro-4,5-difluorophenyl)-1,3-dimethyl-4-{[(1R)-2,2,2-trifluoro-1-methylethyl]sulfamoyl}-1H-pyrrole-2-carboxamide]	30	> 25	20
Cc1cc(NC(=O)c2cc(S(=O)(=O)NC3(C)COC3)cn2C)cc(C)c1F [Compound 80, N-(4-Fluoro-3,5-dimethylphenyl)-1-methyl-4-[(3-methyloxetan-3-yl)sulfamoyl]-1H-pyrrole-2-carboxamide]	40	> 25	90
[2H]c1c(F)c(F)c(F)c([2H])c1NC(=O)c1cc(S(=O)(=O)NC(C)(C)C)cn1C [Compound 71, 4-(tert-butylsulfamoyl)-N-(2,6-dideuterio-3,4,5-trifluoro-phenyl)-1-methyl-pyrrole-2-carboxamide]	100	> 25	130
Cc1cc(NC(=O)c2c(C)c(S(=O)(=O)NC3(C)COC3)c(C)n2C)ccc1F [Compound 88, N-(4-Fluoro-3-methylphenyl)-1,3,5-trimethyl-4-[(3-methyloxetan-3-yl)sulfamoyl]-1H-pyrrole-2-carboxamide]	20	> 25	30
Cc1c(S(=O)(=O)N[C@@H](C)C(F)(F)F)cn(C)c1C(=O)Nc1ccc(F)c(Cl)c1F [Compound 209, N-(3-Chloro-2,4-difluorophenyl)-1,3-dimethyl-4-{[(1S)-2,2,2-trifluoro-1-methylethyl]sulfamoyl}-1H-pyrrole-2-carboxamide]	90	> 25	90
C[C@@H](NS(=O)(=O)c1cn(C)c(C(=O)Nc2ccc(F)c(F)c2F)c1F)C(F)(F)F [Compound 183, 3-Fluoro-1-methyl-4-{[(1R)-2,2,2-trifluoro-1-methylethyl]sulfamoyl}-N-(2,3,4-trifluorophenyl)-1H-pyrrole-2-carboxamide]	20	> 25	10
